Source: patent publication US11530204B2, “Biocatalytic synthesis of cryptophycin anticancer agents” (priority 2019, dated 2022)

Legend:
[1] = system: HCT-116 human colorectal cancer cell line; test: IC50 in HCT-116 human colorectal cancer cell line; assay type: cell-based; conditions: for IC50: Homo sapiens
Description: Each of the cryptophycin analogs was assessed using a zone assay as a relative comparison of potency over a variety of cell lines (see Table 1), and the IC50 for each analog was determined in the HCT-116 human colorectal cancer cell line.

[2] = system: platinum-resistant ovarian cancer; conditions: cited from earlier work

Row | Compound | IC50 [1] [nM] | further results
1 | COc1ccc(C[C@H]2NC(=O)/C=C/C[C@@H]([C@H](C)/C=C/c3ccccn3)OC(=O)[C@H](CC(C)C)OC(=O)[C@H](C)CNC2=O)cc1Cl [2 pyridyl, (3S,6R,10R,16S,E)-10-(3-chloro-4-methoxybenzyl)-3-isobutyl-6-methyl-16-((R,E)-4-(pyridin-2-yl)but-3-en-2-yl)-1,4-dioxa-8,11-diazacyclohexadec-13-ene-2,5,9,12-tetraone] | 102 | 
2 | COc1ccc(C[C@H]2NC(=O)/C=C/C[C@@H]([C@H](C)/C=C/c3cccnc3)OC(=O)[C@H](CC(C)C)OC(=O)[C@H](C)CNC2=O)cc1Cl [3 pyridyl, (3S,6R,10R,16S,E)-10-(3-chloro-4-methoxybenzyl)-3-isobutyl-6-methyl-16-((R,E)-4-(pyridin-3-yl)but-3-en-2-yl)-1,4-dioxa-8,11-diazacyclohexadec-13-ene-2,5,9,12-tetraone] | 0.86 | 
3 | COc1ccc(C[C@H]2NC(=O)/C=C/C[C@@H]([C@H](C)/C=C/c3cnn(C)c3)OC(=O)[C@H](CC(C)C)OC(=O)[C@H](C)CNC2=O)cc1Cl [4 methyl pyrazole, (3S,6R,10R,16S,E)-10-(3-chloro-4-methoxybenzyl)-3-isobutyl-6-methyl-16-((R,E)-4-(1-methyl-1H-pyrazol-4-yl)but-3-en-2-yl)-1,4-dioxa-8,11-diazacyclohexadec-13-ene-2,5,9,12-tetraone] |  | potency in words [1]: low pico-molar
4 | COc1ccc(C[C@H]2NC(=O)/C=C/C[C@@H]([C@H](C)/C=C/c3ccncc3)OC(=O)[C@H](CC(C)C)OC(=O)[C@H](C)CNC2=O)cc1Cl [4 pyridyl, (3S,6R,10R,16S,E)-10-(3-chloro-4-methoxybenzyl)-3-isobutyl-6-methyl-16-((R,E)-4-(pyridin-4-yl)but-3-en-2-yl)-1,4-dioxa-8,11-diazacyclohexadec-13-ene-2,5,9,12-tetraone] | 0.51 | 
5 | COc1ccc(C[C@H]2NC(=O)/C=C/C[C@@H]([C@H](C)[C@H]3O[C@@H]3c3ccccc3)OC(=O)[C@H](CC(C)C)OC(=O)C(C)(C)CNC2=O)cc1Cl [cryptophycin 52] |  | dose-limiting toxicity ([2]; clinical trials): dose-limiting peripheral neuropathy; clinical outcome ([2]; platinum-resistant ovarian cancer): significant disease stabilization
